Where “and” joins values, the source holds several entries; their conditions need not be identical. Identical values can stand only once.

The values below come from ChEMBL document CHEMBL5724558, “Image-based profiling of drug vulnerabilities in CRC organoids” (2024).

Format in all cases: functional, Homo sapiens
Parameters in all cases: dose or concentration left out as unconfirmed

The subject of assay [1] is Colon cancer organoid. The assay is described as follows: Image-based profiling of donated chemical probes and chemogenomic kinase set in O06 CRC organoid. Image analysis is performed on the sum area metric, and the data were normalized to the DMSO control. After imaging the organoid viability is measured using the OneGloEX Luciferase Assay System. The normalized viability data and sum area are reported.

Assay [2] concerns Colon cancer organoid. The experiment in a line: Image-based profiling of donated chemical probes and chemogenomic kinase set in O09 CRC organoid. Image analysis is performed on the sum area metric, and the data were normalized to the DMSO control. After imaging the organoid viability is measured using the OneGloEX Luciferase Assay System. The normalized viability data and sum area are reported.

The test system of assay [3] is Colon cancer organoid. The experiment in a line: Image-based profiling of donated chemical probes and chemogenomic kinase set in O21 CRC organoid. Image analysis is performed on the sum area metric, and the data were normalized to the DMSO control. After imaging the organoid viability is measured using the OneGloEX Luciferase Assay System. The normalized viability data and sum area are reported.

Take `COc1cc(C)c(Sc2cnc(NC(=O)c3ccc(CNC(C)C(C)(C)C)cc3)s2)cc1C(=O)N1CCN(C(C)=O)CC1` (stereo unspecified): the “Cell Viability” value in the assay on Colon cancer organoid [1] (Replication number 1) is 76.6912% and 109.056%; in the assay on Colon cancer organoid [1] (Replication number 2) it was 80.9572% and 86.581%; with Colon cancer organoid [2] (Replication number 1) it was 101.639% and 97.9897%; in the assay on Colon cancer organoid [2] (Replication number 2), 78.5606% and 100.962%; with Colon cancer organoid [3] (Replication number 1) it was 74.3447% and 68.0139%; in the assay on Colon cancer organoid [3] (Replication number 2) it was 84.4374% and 89.8165%.
Regarding `CC(=O)c1c(NS(C)(=O)=O)c2cc(-c3ccc(Cl)cc3)c(-c3ccc(Cl)cc3Cl)nc2n(C)c1=O` [MRL-CB1-NC], the “Cell Viability” value was 116.774% and 92.5059% in the assay on Colon cancer organoid [1] (Replication number 1); 73.5946% and 87.6518% in the assay with Colon cancer organoid [1] (Replication number 2); 160.352% and 102.495% in the assay on Colon cancer organoid [2] (Replication number 1); 132.682% and 100.183% in the assay on Colon cancer organoid [2] (Replication number 2); 126.549% and 100.129% in the assay on Colon cancer organoid [3] (Replication number 1); 108.062% and 94.898% in the assay on Colon cancer organoid [3] (Replication number 2).
On to `CC[C@H](CC(=O)O)n1c(=O)c2ncccc2n(Cc2cn(C)c3cc(C)cc(C)c23)c1=O` [BI-1942], for which the “Cell Viability” value in the assay on Colon cancer organoid [1] (Replication number 1) is 122.43% and 127.53%; in the assay on Colon cancer organoid [1] (Replication number 2), 114.507% and 111.004%; in the assay with Colon cancer organoid [2] (Replication number 1), 76.1388% and 88.7208%; in the assay with Colon cancer organoid [2] (Replication number 2) it was 109.791% and 100.317%; in the assay with Colon cancer organoid [3] (Replication number 1), 98.903% and 90.5784%; in the assay on Colon cancer organoid [3] (Replication number 2) it was 95.5994% and 107.07%.
With `COCCN1CCC(c2cc(CN(C)C(=O)c3cccc(Oc4ccccc4)c3)ccn2)CC1`, the “Cell Viability” value is 195.683% and 128.295% in the assay on Colon cancer organoid [1] (Replication number 1); 160.805% and 131.439% in the assay with Colon cancer organoid [1] (Replication number 2); 147.027% and 86.0124% in the assay with Colon cancer organoid [2] (Replication number 1); 179.06% and 107.19% with Colon cancer organoid [2] (Replication number 2); 116.465% and 111.692% with Colon cancer organoid [3] (Replication number 1); 91.1118% and 90.2148% in the assay with Colon cancer organoid [3] (Replication number 2).
For `COc1cc(N2CCC(O)CC2)ccc1Nc1cc(Nc2ccccc2S(=O)(=O)C(C)C)c2cc[nH]c2n1`, the “Cell Viability” value in the assay with Colon cancer organoid [1] (Replication number 1) was 110.737% and 120.851%; with Colon cancer organoid [1] (Replication number 2), 95.8479% and 104.062%; in the assay on Colon cancer organoid [2] (Replication number 1), 95.9238% and 77.0453%; with Colon cancer organoid [2] (Replication number 2), 69.9407% and 56.4198%; in the assay with Colon cancer organoid [3] (Replication number 1), 85.5887% and 104.808%; in the assay with Colon cancer organoid [3] (Replication number 2), 115.828% and 93.8467%.
Consider `CC(C)C(=O)Nc1n[nH]c2cc(-c3cccc(NS(=O)(=O)C4CC4)c3)ccc12`, for which the “Cell Viability” value in the assay with Colon cancer organoid [1] (Replication number 1) is 98.7656% and 120.438%; with Colon cancer organoid [1] (Replication number 2), 86.9624% and 76.1389%; in the assay on Colon cancer organoid [2] (Replication number 1), 171.396% and 120.765%; with Colon cancer organoid [2] (Replication number 2), 122.795% and 96.2655%; with Colon cancer organoid [3] (Replication number 1), 108.143% and 100.309%; with Colon cancer organoid [3] (Replication number 2), 99.3973% and 100.309%.
Turning to `C[C@H](NC(=O)c1cnc2n1[C@](C)(Cc1ccc(C#N)cc1)C(=O)N2c1cc(Cl)c(F)c(Cl)c1)C(=O)NC1(c2ccccn2)CC1` [BI 1950], the “Cell Viability” value in the assay on Colon cancer organoid [1] (Replication number 1) is 114.343% and 119.672%; in the assay on Colon cancer organoid [1] (Replication number 2) it was 141.649% and 119.396%; in the assay with Colon cancer organoid [2] (Replication number 1) it was 132.005% and 114.441%; in the assay on Colon cancer organoid [2] (Replication number 2) it was 125.066% and 107.777%; in the assay with Colon cancer organoid [3] (Replication number 1) it was 97.6765% and 100.712%; with Colon cancer organoid [3] (Replication number 2) it was 88.7319% and 89.7959%.
For the compound `Cc1ccccc1Oc1cc(-n2c(=O)cc(C(F)(F)F)[nH]c2=O)c2ccccc2c1Cl` [BAY-069], the “Cell Viability” value in the assay on Colon cancer organoid [1] (Replication number 1) is 107.213% and 122.915%; in the assay on Colon cancer organoid [1] (Replication number 2), 117.719% and 113.888%; in the assay on Colon cancer organoid [2] (Replication number 1), 112.474% and 107.103%; with Colon cancer organoid [2] (Replication number 2), 148.882% and 102.498%; in the assay on Colon cancer organoid [3] (Replication number 1), 99.7794% and 121.135%; in the assay on Colon cancer organoid [3] (Replication number 2) it was 101.27% and 93.8137%.
With `Cn1cc(C2=C(c3cn(C4CCN(Cc5ccccn5)CC4)c4ccccc34)C(=O)NC2=O)c2ccccc21` [ENZASTAURIN], the “Cell Viability” value was 30.0951% and 84.3511% in the assay on Colon cancer organoid [1] (Replication number 1); 45.1765% and 67.455% with Colon cancer organoid [1] (Replication number 2); 88.965% and 63.5811% with Colon cancer organoid [2] (Replication number 1); 82.186% and 57.4996% with Colon cancer organoid [2] (Replication number 2); 107.446% and 117.631% with Colon cancer organoid [3] (Replication number 1); 96.9547% and 121.483% in the assay on Colon cancer organoid [3] (Replication number 2).
Take `Cc1ccc2nc(NCCN)c3ncc(C)n3c2c1.O=C(O)C(F)(F)F.O=C(O)C(F)(F)F`: the “Cell Viability” value was 119.625% and 106.83% in the assay with Colon cancer organoid [1] (Replication number 1); 110.324% and 90.8997% in the assay on Colon cancer organoid [1] (Replication number 2); 111% and 93.003% with Colon cancer organoid [2] (Replication number 1); 101.477% and 77.7459% with Colon cancer organoid [2] (Replication number 2); 135.691% and 125.993% with Colon cancer organoid [3] (Replication number 1); 139.56% and 141.634% in the assay with Colon cancer organoid [3] (Replication number 2).
With `CCCCNNC(=O)c1ccc(Br)cc1`, the “Cell Viability” value in the assay with Colon cancer organoid [1] (Replication number 1) was 141.347% and 94.2282%; with Colon cancer organoid [1] (Replication number 2) it was 136.66% and 100.85%; with Colon cancer organoid [2] (Replication number 1), 73.4793% and 89.7218%; with Colon cancer organoid [2] (Replication number 2), 77.458% and 82.3883%; with Colon cancer organoid [3] (Replication number 1), 97.5198% and 109.34%; in the assay with Colon cancer organoid [3] (Replication number 2) it was 111.608% and 95.0477%.
